{
  "source": "patent US20090143478A1",
  "about": "“Milled Submicron Organic Biocides With Narrow Particle Size Distribution, and Uses Thereof” (PhibroWood, LLC, priority 2004, published 2009)",
  "key": {"[1]": {"format": "physicochemical", "settings": "0.4-0.5 mm zirconium silicate", "method": "(§1) The laboratory-sized vertical mill was provided by C B Mills, model# L-3-J. The mill has a 2 liter capacity and is jacketed for cooling. Unless otherwise specified, ambient water was cycled through the mill cooling jacket during operation. The internal dimensions are 3.9″ diameter by 9.1″ height. The mill uses a standard 3×3″ disk agitator (mild steel) on a stainless steel shaft, and it operates at 2,620 rpm.\n(§2) The media used in this Example was 0.4-0.5 mm zirconium silicate beads supplied by C B Mills. All particle size determinations were made with a Sedigraph™ 5100T manufactured by Micromeritics, which uses x-ray detection and bases calculations of size on Stokes' Law.\nThe total batch weight was about 600 g."}, "[2]": {"settings": "at 170 C; cited from earlier work"}, "[3]": {"settings": "cited from earlier work"}, "[4]": {"experiment": "Wet milling chlorothalonil with 0.5-0.6 mm cerium-doped zirconium oxide beads, particle size by Sedigraph", "format": "physicochemical", "method": "as §1, §2\nThe same mill and conditions were used in this experiment as in experiment 1. However, the grinding media was 0.5-0.6 mm cerium-doped zirconium oxide beads obtained from CB Mills. The density of the cerium doped zirconium oxide is ˜6.0 g/cm^3. […] The total batch weight was about 600 g."}, "[5]": {"settings": "Milling Time 0 Mins., 0.5-0.6 mm cerium-doped zirconium oxide"}, "[6]": {"settings": "Milling Time 90 Mins., 0.5-0.6 mm cerium-doped zirconium oxide"}, "[7]": {"settings": "Milling Time 240 Mins., 0.5-0.6 mm cerium-doped zirconium oxide"}, "[8]": {"settings": "obtainable in 6 hours, 0.5 mm zirconia milling media"}, "[9]": {"settings": "0.1 cm zirconia, 10 minutes, US 2004/0063847, 2003/0040569"}},
  "note": "Like-named read-outs stand apart in the source and are kept apart here.",
  "data": [
    {"compound": "N#Cc1c(Cl)c(Cl)c(Cl)c(C#N)c1Cl", "note": "[chlorothalonil, 2,4,5,6-tetrachloro-1,3-dicyanobenzene]", "values": [
      {"measurement": "Volume % With Diameter Greater Than 2 μm", "setting": "[1]; Milling Time 0 Mins.", "value": 95, "unit": "Volume %"},
      {"measurement": "Volume % With Diameter Greater Than 5 μm", "setting": "[1]; Milling Time 0 Mins.", "value": 48, "unit": "Volume %"},
      {"measurement": "Volume % With Diameter Greater Than 10 μm", "setting": "[1]; Milling Time 0 Mins.", "value": 10, "unit": "Volume %"},
      {"measurement": "d50", "setting": "[1]; Milling Time 0 Mins.", "value": 4.9, "unit": "μm"},
      {"measurement": "Volume % With Diameter Greater Than 1 μm", "setting": "[1]; Milling Time 30 Mins.", "value": 68, "unit": "Volume %"},
      {"measurement": "Volume % With Diameter Greater Than 2 μm", "setting": "[1]; Milling Time 30 Mins.", "value": 21, "unit": "Volume %"},
      {"measurement": "Volume % With Diameter Greater Than 5 μm", "setting": "[1]; Milling Time 30 Mins.", "value": 4, "unit": "Volume %"},
      {"measurement": "Volume % With Diameter Greater Than 10 μm", "setting": "[1]; Milling Time 30 Mins.", "value": 0, "unit": "Volume %"},
      {"measurement": "d50", "setting": "[1]; Milling Time 30 Mins.", "value": 1.3, "unit": "μm"},
      {"measurement": "Volume % With Diameter Greater Than 1 μm", "setting": "[1]; Milling Time 60 Mins.", "value": 50, "unit": "Volume %"},
      {"measurement": "Volume % With Diameter Greater Than 2 μm", "setting": "[1]; Milling Time 60 Mins.", "value": 11, "unit": "Volume %"},
      {"measurement": "Volume % With Diameter Greater Than 5 μm", "setting": "[1]; Milling Time 60 Mins.", "value": 2, "unit": "Volume %"},
      {"measurement": "Volume % With Diameter Greater Than 10 μm", "setting": "[1]; Milling Time 60 Mins.", "value": 4, "unit": "Volume %"},
      {"measurement": "d50", "setting": "[1]; Milling Time 60 Mins.", "value": 1.0, "unit": "μm"},
      {"measurement": "Volume % With Diameter Greater Than 1 μm", "setting": "[1]; Milling Time 90 Mins.", "value": 94, "unit": "Volume %"},
      {"measurement": "Volume % With Diameter Greater Than 2 μm", "setting": "[1]; Milling Time 90 Mins.", "value": 22, "unit": "Volume %"},
      {"measurement": "Volume % With Diameter Greater Than 5 μm", "setting": "[1]; Milling Time 90 Mins.", "value": 23, "unit": "Volume %"},
      {"measurement": "Volume % With Diameter Greater Than 10 μm", "setting": "[1]; Milling Time 90 Mins.", "value": 18, "unit": "Volume %"},
      {"measurement": "d50", "setting": "[1]; Milling Time 90 Mins.", "value": 1.4, "unit": "μm"},
      {"measurement": "Volume % With Diameter Greater Than 2 μm", "setting": "[1]; Milling Time 120 Mins.", "value": 4, "unit": "Volume %"},
      {"measurement": "Volume % With Diameter Greater Than 5 μm", "setting": "[1]; Milling Time 120 Mins.", "value": 0, "unit": "Volume %"},
      {"measurement": "Volume % With Diameter Greater Than 10 μm", "setting": "[1]; Milling Time 120 Mins.", "value": 2, "unit": "Volume %"},
      {"measurement": "d50", "setting": "[1]; Milling Time 120 Mins.", "value": 1.03, "unit": "μm"},
      {"measurement": "Volume % With Diameter Greater Than 1 μm", "setting": "[1]; Milling Time 150 Mins.", "value": 58, "unit": "Volume %"},
      {"measurement": "Volume % With Diameter Greater Than 2 μm", "setting": "[1]; Milling Time 150 Mins.", "value": 6, "unit": "Volume %"},
      {"measurement": "Volume % With Diameter Greater Than 5 μm", "setting": "[1]; Milling Time 150 Mins.", "value": 2, "unit": "Volume %"},
      {"measurement": "Volume % With Diameter Greater Than 10 μm", "setting": "[1]; Milling Time 150 Mins.", "value": 0, "unit": "Volume %"},
      {"measurement": "d50", "setting": "[1]; Milling Time 150 Mins.", "value": 1.12, "unit": "μm"},
      {"measurement": "Volume % With Diameter Greater Than 1 μm", "setting": "[1]; Milling Time 180 Mins.", "value": 53, "unit": "Volume %"},
      {"measurement": "Volume % With Diameter Greater Than 2 μm", "setting": "[1]; Milling Time 180 Mins.", "value": 7, "unit": "Volume %"},
      {"measurement": "Volume % With Diameter Greater Than 5 μm", "setting": "[1]; Milling Time 180 Mins.", "value": 2, "unit": "Volume %"},
      {"measurement": "Volume % With Diameter Greater Than 10 μm", "setting": "[1]; Milling Time 180 Mins.", "value": 2, "unit": "Volume %"},
      {"measurement": "d50", "setting": "[1]; Milling Time 180 Mins.", "value": 1.07, "unit": "μm"},
      {"measurement": "Volume % With Diameter Greater Than 1 μm", "setting": "[1]; Milling Time 270 Mins.", "value": 54, "unit": "Volume %"},
      {"measurement": "Volume % With Diameter Greater Than 2 μm", "setting": "[1]; Milling Time 270 Mins.", "value": 8, "unit": "Volume %"},
      {"measurement": "Volume % With Diameter Greater Than 5 μm", "setting": "[1]; Milling Time 270 Mins.", "value": 0, "unit": "Volume %"},
      {"measurement": "Volume % With Diameter Greater Than 10 μm", "setting": "[1]; Milling Time 270 Mins.", "value": 2, "unit": "Volume %"},
      {"measurement": "d50", "setting": "[1]; Milling Time 270 Mins.", "value": 1.09, "unit": "μm"},
      {"measurement": "Volume % With Diameter Greater Than 1 μm", "setting": "[1]; Milling Time 450 Mins.", "value": 56, "unit": "Volume %"},
      {"measurement": "Volume % With Diameter Greater Than 2 μm", "setting": "[1]; Milling Time 450 Mins.", "value": 21, "unit": "Volume %"},
      {"measurement": "Volume % With Diameter Greater Than 5 μm", "setting": "[1]; Milling Time 450 Mins.", "value": 8, "unit": "Volume %"},
      {"measurement": "Volume % With Diameter Greater Than 10 μm", "setting": "[1]; Milling Time 450 Mins.", "value": 12, "unit": "Volume %"},
      {"measurement": "d50", "setting": "[1]; Milling Time 450 Mins.", "value": 1.15, "unit": "μm"},
      {"measurement": "volatility", "setting": "[2]", "value": 9.2, "unit": "mmHg"},
      {"measurement": "size below which 90% of the number of particles lie", "setting": "[3]; 0.1 cm zirconium beads, 3000 rpm, 10 minutes, US 2004/0024099", "value": "below 0.5 microns"},
      {"measurement": "mean / average particle diameter after milling with 2 mm glass beads", "setting": "[3]; U.S. Pat. No. 5,360,783", "value": 2.3, "unit": "microns"},
      {"measurement": "average particle size of the product", "setting": "[3]; U.S. Pat. No. 5,667,795, 40% chlorothalonil, 5.6% zinc oxide, wet mill", "value": 3, "unit": "microns"},
      {"measurement": "Volume % With Diameter Greater Than 1 μm", "setting": "[4]; [5]", "value": 92, "unit": "Volume %"},
      {"measurement": "Volume % With Diameter Greater Than 2 μm", "setting": "[4]; [5]", "value": 77, "unit": "Volume %"},
      {"measurement": "Volume % With Diameter Greater Than 5 μm", "setting": "[4]; [5]", "value": 30, "unit": "Volume %"},
      {"measurement": "Volume % With Diameter Greater Than 10 μm", "setting": "[4]; [5]", "value": 8, "unit": "Volume %"},
      {"measurement": "d50", "setting": "[4]; [5]", "value": 3.44, "unit": "μm"},
      {"measurement": "Volume % With Diameter Greater Than 0.4 μm", "setting": "[4]; [6]", "value": 22, "unit": "Volume %"},
      {"measurement": "Volume % With Diameter Greater Than 1 μm", "setting": "[4]; [6]", "value": 3, "unit": "Volume %"},
      {"measurement": "Volume % With Diameter Greater Than 2 μm", "setting": "[4]; [6]", "value": 3, "unit": "Volume %"},
      {"measurement": "Volume % With Diameter Greater Than 5 μm", "setting": "[4]; [6]", "value": 3, "unit": "Volume %"},
      {"measurement": "Volume % With Diameter Greater Than 10 μm", "setting": "[4]; [6]", "value": 3, "unit": "Volume %"},
      {"measurement": "Volume % With Diameter Greater Than 0.2 μm", "setting": "[4]; [7]", "value": 51, "unit": "Volume %"},
      {"measurement": "Volume % With Diameter Greater Than 0.4 μm", "setting": "[4]; [7]", "value": 3, "unit": "Volume %"},
      {"measurement": "Volume % With Diameter Greater Than 1 μm", "setting": "[4]; [7]", "value": 3, "unit": "Volume %"},
      {"measurement": "Volume % With Diameter Greater Than 2 μm", "setting": "[4]; [7]", "value": 2, "unit": "Volume %"},
      {"measurement": "Volume % With Diameter Greater Than 5 μm", "setting": "[4]; [7]", "value": 1, "unit": "Volume %"},
      {"measurement": "Volume % With Diameter Greater Than 10 μm", "setting": "[4]; [7]", "value": 0, "unit": "Volume %"},
      {"measurement": "d50", "setting": "[4]; [7]", "value": 0.21, "unit": "μm"},
      {"measurement": "d95 within a factor of the d50", "setting": "[4]; milled chlorothalonil of the example", "value": "≤ 2"},
      {"measurement": "d95", "setting": "[4]; obtainable in 90 minutes, 0.5 mm zirconia milling media", "value": "less than 1 micron"},
      {"measurement": "d50", "setting": "[4]; [8]", "value": "less than 0.3 microns"},
      {"measurement": "d95", "setting": "[4]; [8]", "value": "less than 0.4 microns"},
      {"measurement": "increase in number of particles per unit of mass over the standard products, factor", "setting": "[4]; product obtained after 90 minutes of milling (first statement)", "value": "more than 30"},
      {"measurement": "increase in number of particles per unit of mass over the standard products, factor", "setting": "[4]; product obtained after 90 minutes of milling (second statement)", "value": "more than 1000"}
    ]},
    {"compound": "CC1OC(C)OC(C)OC(C)O1", "note": "(stereo not drawn) [metaldehyde]", "values": [
      {"measurement": "diameter below which 90% of the particles lie", "setting": "[3]; [9]", "value": "less than 2.5 microns"},
      {"measurement": "mean volume diameter", "setting": "[3]; [9]", "value": "less than 1.5 microns"}
    ]}
  ]
}
